The values below come from US20230277554A1, “COMPOSITION CONTAINING NICKEL-SUPEROXIDE DISMUTASE AND THE LIKE USEFUL FOR HAIRCARE” (priority 2020, published 2023).

The test concerns Cutibacterium acnes. Put plainly: Cutibacterium acnes growth inhibition. The class given is cell-based. Here is the method: Cutibacterium acnes is a troublesome anaerobic pathogen. TUN-828® has the function of forming oxygen internally, so we tried to explore whether such a mechanism can inhibit the growth of Cutibacterium acnes and thereby promote the formation of Staphylococcus epidermidis thus form a micro-ecological environment beneficial to the scalp. […] In 24 hours, TUN-828® can inhibit more than 93% Cutibacterium acnes and more than 99% in 48 hr.

As to “Nickel Bis (Hydroxy Diphenyl MethyIPyrrolidino Methy) Pyridinediy1 t-Butylisocyano Perchlorate [TUN-828®]”, the “inhibition of Cutibacterium acnes” value runs as follows: (24 hours) “more than 93%”; (48 hr) “more than 99%”.
